The source made the active and inactive calls.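 How the source made its calls: active means compounds giving half or more protection of infected cells from virus-caused growth loss, again on retest; inactive means the rest.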
Tested on: CEM cells HIV-1 protection, formazan growth assay
Test: NCI AIDS Antiviral Assay
Conditions: for IC50: measured here: growth of uninfected CEM cells
Procedure, shortened: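 Five concentrations of each compound were applied to infected and uninfected human CEM cells. Protection from HIV-1 was judged from growth measured with a soluble formazan assay.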

Q: How did the outcome turn out when `CCC1(C(=O)OC)CCc2c(OC)ccc(OC)c2C1=O` (stereo unspecified) was run?
A: The outcome was “inactive”.

Q: For `C=CCCC1(CCP(=O)(c2ccccc2)c2ccccc2)OCCO1`, which EC50 is on record?
A: Its EC50 is over 708 µM.

Q: What about the IC50 of the same compound?
A: Its IC50 is 155 µM.

Q: Which EC50 does the source give for `CCCCCCC=C(c1cc(Cl)c(OC)c(C(=O)OC)c1)c1cc(Cl)c(OC)c(C(=O)OC)c1` here?
A: Its EC50 is over 5.37 µM.

Q: What about the IC50 of the same compound?
A: The IC50 was over 5.37 µM.

Q: With `Cc1ccc(/C(O)=C/c2nc3ccccc3s/c2=N/CS(=O)(=O)c2ccc(C)cc2)cc1` as the compound, how does the EC50 read?
A: The EC50 was over 200 µM.

Q: What about the IC50 of the same compound?
A: The IC50 was over 200 µM.

Q: How did the outcome turn out when `CCOC(F)(F)/C=C/c1ccccc1` was run?
A: The outcome was “inactive”.

Q: What does the source list for `Cc1cc(Cl)cc2c1NC(=O)C2(O)CC(=O)c1ccc(Br)cc1` (stereo unspecified)?
A: EC50: > 91.2 µM; IC50: 70.8 µM

Q: Which results are given for `CC1(CO)COC(C)(C)OC1`?
A: EC50: > 1550 µM; IC50: 1410 µM

Q: Which outcome does the source give for `O=C(O)CNS(=O)(=O)c1ccc(NC(=O)c2ccc([N+](=O)[O-])cc2)cc1` here?
A: Its outcome is “inactive”.

Q: Which EC50 does the source give for `Nn1c(CNc2ccc(-c3nnc(Nc4ccc(Cl)cc4)n3N)cc2)nnc1Nc1ccc(Cl)cc1` here?
A: Its EC50 is over 200 µM.

Q: And the IC50?
A: Its IC50 is 67.6 µM.

Q: For `CC1(C)OCC(COC(=O)NCn2cc(-c3ccccc3)nn2)O1` (stereo unspecified), which EC50 is on record?
A: Its EC50 is over 200 µM.

Q: What about the IC50 of the same compound?
A: The IC50 was over 200 µM.

Q: Which EC50 does the source give for `Cc1cn(C(C)OCCN(O)C(=O)Oc2ccccc2)c(=O)[nH]c1=O` (stereo unspecified) here?
A: The EC50 was over 200 µM.

Q: What about the IC50 of the same compound?
A: Its IC50 is over 200 µM.

Q: Which results are given for `CSc1n(CC(=O)OC(C)(C)C)nc[n+]1N`?
A: EC50: > 200 µM; IC50: > 200 µM

Q: With `COc1cc(/C=C2\C(=O)N(c3cccc(NC(C)=O)c3)C(c3ccccc3)S2(=O)=O)cc(OC)c1OC` (stereo unspecified) as the compound, how does the EC50 read?
A: Its EC50 is over 200 µM.

Q: And the IC50?
A: Its IC50 is 87.1 µM.

Q: For `Cc1ccc(S(=O)(=O)n2cncc2CO)cc1`, which EC50 is on record?
A: The EC50 was over 200 µM.

Q: What about the IC50 of the same compound?
A: The IC50 was over 200 µM.

Q: What does the source list for `O=C(O)COc1cccc2ccccc(=O)c12`?
A: EC50: > 200 µM; IC50: > 200 µM

Q: With `S=c1sc2ccccc2n1CN1CCN(Cc2ccccc2)CC1` as the compound, how does the EC50 read?
A: Its EC50 is over 200 µM.

Q: And the IC50?
A: Its IC50 is over 200 µM.

Q: For `C=C1CC(c2ccc(S(=O)(=O)N3CCOCC3)cc2)OC1=O` (stereo unspecified), which EC50 is on record?
A: Its EC50 is over 200 µM.

Q: What about the IC50 of the same compound?
A: Its IC50 is 2.82 µM.

Q: What does the source list for `CC(CN=C(N)CSS(=O)(=O)O)OC12CC3CC(CC(C3)C1)C2` (stereo unspecified)?
A: EC50: > 200 µM; IC50: 35.5 µM

Q: How did the EC50 turn out when `CN(C)C1C(=O)C(C(=O)NCNCCCO)=C(O)C2(O)C(=O)C3=C(O)c4c(O)cccc4C(C)(O)C3CC12` (stereo unspecified) was run?
A: The EC50 was over 204 µM.

Q: What about the IC50 of the same compound?
A: The IC50 was over 100 µM.

Q: What does the source list for `CCN(CC)CCN1CCN=c2c3cc(OC)ccc3n3cnc4ccc1c2c43`?
A: EC50: > 2 µM; IC50: 0.0347 µM

Q: With `COc1ccc(/C(C#N)=C/c2ccccc2OC)cc1` as the compound, how does the EC50 read?
A: The EC50 was over 200 µM.

Q: What about the IC50 of the same compound?
A: Its IC50 is 11.5 µM.

Q: `N#C/C(=C\c1ccco1)C(N)=O` was tested. Which EC50 did it give?
A: Its EC50 is over 200 µM.

Q: And the IC50?
A: Its IC50 is over 200 µM.

Q: With `Cc1ccc2ccc(=O)oc2c1` as the compound, how does the EC50 read?
A: Its EC50 is over 309 µM.

Q: And the IC50?
A: The IC50 was over 309 µM.

Q: How did the EC50 turn out when `Cc1cccc(/C=N/NC(=S)N2CCCC2)n1` was run?
A: The EC50 was over 100 µM.

Q: And the IC50?
A: Its IC50 is 0.115 µM.

Q: What does the source list for `O=C(/C=C/c1ccccc1Br)c1ccccc1`?
A: EC50: > 200 µM; IC50: 3.16 µM

Q: `CC(NC(=O)C(C)NC(=O)C(N)CCP(C)(=O)O)C(=O)O` (stereo unspecified) was tested. Which outcome did it give?
A: Its outcome is “inactive”.

Q: Which EC50 does the source give for `O=C(O)P(=O)(O)O` here?
A: Its EC50 is over 7940 µM.

Q: And the IC50?
A: The IC50 was 5750 µM.

Q: What does the source list for `C=Cc1ccccn1`?
A: EC50: > 200 µM; IC50: > 200 µM

Q: What does the source list for `CCOC(=O)c1ccc(N(CC/C(CN)=N/NC(N)=O)C(C)=O)cc1`?
A: EC50: > 646 µM; IC50: 363 µM

Q: Which results are given for `N#Cc1nc(COCc2ccccc2)oc1N`?
A: EC50: > 200 µM; IC50: 95.5 µM

Q: How did the EC50 turn out when `C=C1CC[C@]2(C)C3CC[C@]4(C)C(C(C)CCC(=O)OC)CCC4[C@@H]3CC[C@@H]2C1` (stereo partly specified) was run?
A: Its EC50 is over 87.1 µM.

Q: And the IC50?
A: Its IC50 is over 87.1 µM.

Q: For `OCCCN(Cc1ccccc1)CC(O)c1ccc(OCc2ccccc2)c(OCc2ccccc2)c1` (stereo unspecified), which EC50 is on record?
A: Its EC50 is over 200 µM.

Q: What about the IC50 of the same compound?
A: Its IC50 is 9.55 µM.

Q: With `CN(C)CCCN1C(=S)N(CCCN(C)C)c2c3ccccc3nc3c([N+](=O)[O-])ccc1c23` as the compound, how does the EC50 read?
A: Its EC50 is 0.407 µM.

Q: What about the IC50 of the same compound?
A: Its IC50 is 1.07 µM.

Q: For `O=C(Nc1ccc(C(=O)Nc2ccc(C3=NCCCN3)cc2)cc1)Nc1ccc(C2=NCCCN2)cc1`, which EC50 is on record?
A: The EC50 was over 200 µM.

Q: What about the IC50 of the same compound?
A: The IC50 was 17 µM.

Q: For `S=c1nc(COc2ccc(Cl)cc2)[nH][nH]1`, which EC50 is on record?
A: Its EC50 is over 1020 µM.

Q: And the IC50?
A: Its IC50 is over 1020 µM.

Q: `CC(C)=CCC[C@@H](C)[C@H]1CC[C@@]2(C)[C@@H]3CC[C@H]4C(C)(C)[C@@H](O)CC[C@@]45C[C@@]35CC[C@]12C` was tested. Which EC50 did it give?
A: The EC50 was over 200 µM.

Q: What about the IC50 of the same compound?
A: The IC50 was 126 µM.

Q: How did the EC50 turn out when `COc1c2c3c4c(c(OC)c(=O)c5c(O)c(Br)c(OC)c(c6c(OC)c(Br)c(O)c(c1=O)c36)c54)C(C(C)=O)=C(C)C2` was run?
A: The EC50 was over 13.8 µM.

Q: What about the IC50 of the same compound?
A: Its IC50 is 1.45 µM.

Q: Which EC50 does the source give for `CCOc1ccccc1NC(=O)C1=C(C)NC(C)=C(C(=O)Nc2ccccc2OCC)C1c1ccc(NC(C)=O)cc1` here?
A: The EC50 was over 12.6 µM.

Q: What about the IC50 of the same compound?
A: The IC50 was over 12.6 µM.

Q: Which outcome does the source give for `OCC1OC(n2cnc(C3=NCCCN3)n2)C(O)C1O` (stereo unspecified) here?
A: The outcome was “inactive”.

Q: What does the source list for `CC(C)CCC1(CCSC#N)C(=O)NC(=O)NC1=O`?
A: EC50: > 200 µM; IC50: 37.2 µM

Q: What does the source list for `CC#CCCC1(CC)CCCN(C(=O)OC(C)C)C1OCC` (stereo unspecified)?
A: EC50: > 32.4 µM; IC50: > 32.4 µM

Q: `Cc1cccc(C(C)C)c1NC(=O)/C(Cc1c([N+](=O)[O-])cccc1[N+](=O)[O-])=N/NC(=O)CC#N` was tested. Which EC50 did it give?
A: Its EC50 is over 145 µM.

Q: And the IC50?
A: Its IC50 is over 145 µM.

Q: With `Cn1ccnc1CCc1ccc(Cl)c(Cl)c1` as the compound, how does the EC50 read?
A: Its EC50 is over 851 µM.

Q: What about the IC50 of the same compound?
A: The IC50 was 97.7 µM.

Source: PubChem BioAssay AID179 (DTP/NCI, 2004)
